Experimental data published in patent US20240208992A1, “MACROCYCLES AS CFTR MODULATORS” (Idorsia Pharmaceuticals Ltd, priority 2021, published 2024).

Biological target: human F508del-CFTR (Homo sapiens, UniProt P13569, DEL508-508)
Assay: F508del-CFTR cell surface expression (corrector activity), DiscoveRx ß-galactosidase complementation chemiluminescence assay in recombinant U2OS cell line;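 also: U2OS cells co-expressing ProLink-tagged F508del-CFTR and a membrane-anchored enzyme acceptor, where more surface CFTR restores β-galactosidase activity measured by chemiluminescence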
Conditions: U2OS cell line, 16h compound incubation; for EC50: EC50, F508del-CFTR cell surface expression, geomean values; for Emax: U2OS, in relation to the Emax of the corrector lumacaftor (=100%), arithmetic mean values

human F508del-CFTR, sequence (P13569 with tags, fused parts or gaps DEL508-508): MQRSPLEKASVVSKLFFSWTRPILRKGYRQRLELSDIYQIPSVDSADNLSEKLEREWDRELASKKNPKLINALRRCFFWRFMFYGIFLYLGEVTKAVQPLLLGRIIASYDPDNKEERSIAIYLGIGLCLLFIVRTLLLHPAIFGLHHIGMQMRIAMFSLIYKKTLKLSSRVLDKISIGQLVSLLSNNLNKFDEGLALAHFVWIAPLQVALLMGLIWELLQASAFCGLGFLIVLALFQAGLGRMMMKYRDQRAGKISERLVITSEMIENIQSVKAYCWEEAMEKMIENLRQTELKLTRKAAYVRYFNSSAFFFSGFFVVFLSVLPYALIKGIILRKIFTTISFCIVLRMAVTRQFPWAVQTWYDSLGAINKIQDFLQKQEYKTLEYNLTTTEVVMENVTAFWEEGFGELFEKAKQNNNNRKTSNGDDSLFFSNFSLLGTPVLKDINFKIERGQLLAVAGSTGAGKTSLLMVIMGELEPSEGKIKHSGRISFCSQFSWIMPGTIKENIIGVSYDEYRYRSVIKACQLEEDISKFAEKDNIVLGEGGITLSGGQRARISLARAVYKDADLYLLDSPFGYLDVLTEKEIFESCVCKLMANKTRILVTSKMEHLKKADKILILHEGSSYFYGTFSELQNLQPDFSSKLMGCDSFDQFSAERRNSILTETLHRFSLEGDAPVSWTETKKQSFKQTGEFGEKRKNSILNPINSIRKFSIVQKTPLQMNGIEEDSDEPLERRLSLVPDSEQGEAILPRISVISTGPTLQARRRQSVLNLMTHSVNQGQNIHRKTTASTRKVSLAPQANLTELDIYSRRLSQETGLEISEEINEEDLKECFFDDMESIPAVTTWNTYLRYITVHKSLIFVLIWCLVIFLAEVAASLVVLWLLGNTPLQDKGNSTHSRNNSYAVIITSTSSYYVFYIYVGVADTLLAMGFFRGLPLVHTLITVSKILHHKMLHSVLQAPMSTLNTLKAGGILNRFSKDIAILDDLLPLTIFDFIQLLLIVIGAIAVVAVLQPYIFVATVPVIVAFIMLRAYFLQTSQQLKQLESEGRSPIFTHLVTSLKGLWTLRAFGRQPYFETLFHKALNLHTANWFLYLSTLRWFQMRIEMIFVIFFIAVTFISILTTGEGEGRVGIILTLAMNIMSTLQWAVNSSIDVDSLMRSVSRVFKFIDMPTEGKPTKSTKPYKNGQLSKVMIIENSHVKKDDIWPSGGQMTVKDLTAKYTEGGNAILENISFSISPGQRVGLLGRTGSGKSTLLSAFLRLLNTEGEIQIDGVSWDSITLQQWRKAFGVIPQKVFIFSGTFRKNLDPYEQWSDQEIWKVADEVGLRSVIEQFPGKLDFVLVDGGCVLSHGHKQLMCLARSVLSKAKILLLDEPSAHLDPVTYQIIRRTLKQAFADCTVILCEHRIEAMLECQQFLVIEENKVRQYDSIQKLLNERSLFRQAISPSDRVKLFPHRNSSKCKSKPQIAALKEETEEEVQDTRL

## COc1cc(CCNC(=O)[C@@H]2CC(=O)N(C)[C@@H](CC(C)C)C(=O)N3CCCC[C@@H]3C(=O)N[C@H](Cc3ccccc3)COc3cnc4ccccc4c3C(=O)N2)ccc1F [Example 91, (9S,13S,19aR,22R)-22-benzyl-N-(4-fluoro-3-methoxyphenethyl)-13-isobutyl-12-methyl-7,11,14,20-tetraoxo-7,8,9,10,11,12,13,14,17,18,19,19a,20,21,22,23-hexadecahydro-16H-pyrido[2′,1′:6,7][1]oxa[4,7,10,14]tetraazacycloheptadecino[17,16-c]quinoline-9-carboxamide]
  EC50: 466 nM
  Emax: 210%

## Cc1ccc(F)c(CCNC(=O)[C@@H]2CC(=O)N(C)[C@@H](CC(C)C)C(=O)N3CCCC[C@@H]3C(=O)N[C@H](Cc3ccccc3)COc3cnc4ccccc4c3C(=O)N2)c1 [Example 92, (9S,13S,19aR,22R)-22-benzyl-N-(2-fluoro-5-methylphenethyl)-13-isobutyl-12-methyl-7,11,14,20-tetraoxo-7,8,9,10,11,12,13,14,17,18,19,19a,20,21,22,23-hexadecahydro-16H-pyrido[2′,1′:6,7][1]oxa[4,7,10,14]tetraazacycloheptadecino[17,16-c]quinoline-9-carboxamide]
  EC50: 289 nM
  Emax: 256%

## COc1cc(CCNC(=O)[C@@H]2CC(=O)N(C)[C@@H](CC(C)C)C(=O)N3CCCC[C@@H]3C(=O)N[C@H](Cc3ccccc3)COc3cnc4ccccc4c3C(=O)N2)ccc1-n1nccn1 [Example 93, (9S,13S,19aR,22R)-22-benzyl-13-isobutyl-N-(3-methoxy-4-(2H-1,2,3-triazol-2-yl)phenethyl)-12-methyl-7,11,14,20-tetraoxo-7,8,9,10,11,12,13,14,17,18,19,19a,20,21,22,23-hexadecahydro-16H-pyrido[2′,1′:6,7][1]oxa[4,7,10,14]tetraazacycloheptadecino[17,16-c]quinoline-9-carboxamide]
  EC50: 777 nM
  Emax: 189%

## CC(C)C[C@H]1C(=O)N2CCCC[C@@H]2C(=O)N[C@H](Cc2ccccc2)COc2cnc3ccccc3c2C(=O)N[C@H](C(=O)NCCc2ccc(F)cc2F)CC(=O)N1C [Example 94, (9S,13S,19aR,22R)-22-benzyl-N-(2,4-difluorophenethyl)-13-isobutyl-12-methyl-7,11,14,20-tetraoxo-7,8,9,10,11,12,13,14,17,18,19,19a,20,21,22,23-hexadecahydro-16H-pyrido[2′,1′:6,7][1]oxa[4,7,10,14]tetraazacycloheptadecino[17,16-c]quinoline-9-carboxamide]
  EC50: 257 nM
  Emax: 201%

## COc1ccc(CCNC(=O)[C@@H]2CC(=O)N(C)[C@@H](CC(C)C)C(=O)N3CCCC[C@@H]3C(=O)N[C@H](Cc3ccccc3)COc3cnc4ccccc4c3C(=O)N2)cc1C [Example 95, (9S,13S,19aR,22R)-22-benzyl-13-isobutyl-N-(4-methoxy-3-methylphenethyl)-12-methyl-7,11,14,20-tetraoxo-7,8,9,10,11,12,13,14,17,18,19,19a,20,21,22,23-hexadecahydro-16H-pyrido[2′,1′:6,7][1]oxa[4,7,10,14]tetraazacycloheptadecino[17,16-c]quinoline-9-carboxamide]
  EC50: 250 nM
  Emax: 178%

## Cc1cccc(CCNC(=O)[C@@H]2CC(=O)N(C)[C@@H](CC(C)C)C(=O)N3CCCC[C@@H]3C(=O)N[C@H](Cc3ccccc3)COc3cnc4ccccc4c3C(=O)N2)c1 [Example 96, (9S,13S,19aR,22R)-22-benzyl-13-isobutyl-12-methyl-N-(3-methylphenethyl)-7,11,14,20-tetraoxo-7,8,9,10,11,12,13,14,17,18,19,19a,20,21,22,23-hexadecahydro-16H-pyrido[2′,1′:6,7][1]oxa[4,7,10,14]tetraazacycloheptadecino[17,16-c]quinoline-9-carboxamide]
  EC50: 425 nM
  Emax: 206%

## CC(C)C[C@H]1C(=O)N2CCCC[C@@H]2C(=O)N[C@H](Cc2ccccc2)COc2cnc3ccccc3c2C(=O)N[C@H](C(=O)NCCc2cccc(F)c2F)CC(=O)N1C [Example 97, (9S,13S,19aR,22R)-22-benzyl-N-(2,3-difluorophenethyl)-13-isobutyl-12-methyl-7,11,14,20-tetraoxo-7,8,9,10,11,12,13,14,17,18,19,19a,20,21,22,23-hexadecahydro-16H-pyrido[2′,1′:6,7][1]oxa[4,7,10,14]tetraazacycloheptadecino[17,16-c]quinoline-9-carboxamide]
  EC50: 146 nM
  Emax: 285%

## Cc1cc(CCNC(=O)[C@@H]2CC(=O)N(C)[C@@H](CC(C)C)C(=O)N3CCCC[C@@H]3C(=O)N[C@H](Cc3ccccc3)COc3cnc4ccccc4c3C(=O)N2)no1 [Example 98, (9S,13S,19aR,22R)-22-benzyl-13-isobutyl-12-methyl-N-(2-(5-methylisoxazol-3-yl)ethyl)-7,11,14,20-]
  EC50: 311 nM
  Emax: 326%

## CC(C)C[C@H]1C(=O)N2CCCC[C@@H]2C(=O)N[C@H](Cc2ccccc2)COc2cnc3ccccc3c2C(=O)N[C@H](C(=O)NCCc2c(F)cc(Br)cc2F)CC(=O)N1C [Example 99, (9S,13S,19aR,22R)-22-benzyl-N-(4-bromo-2,6-difluorophenethyl)-13-isobutyl-12-methyl-7,11,14,20-tetraoxo-7,8,9,10,11,12,13,14,17,18,19,19a,20,21,22,23-hexadecahydro-16H-pyrido[2′,11:6,7][1]oxa[4,7,10,14]tetraazacycloheptadecino[17,16-c]quinoline-9-carboxamide]
  EC50: 205 nM
  Emax: 254%

## COc1ccc(CCNC(=O)[C@@H]2CC(=O)N(C)[C@@H](CC(C)C)C(=O)N3CCCC[C@@H]3C(=O)N[C@H](Cc3ccccc3)COc3cnc4ccccc4c3C(=O)N2)cc1F [Example 100, (9S,13S,19aR,22R)-22-benzyl-N-(3-fluoro-4-methoxyphenethyl)-13-isobutyl-12-methyl-7,11,14,20-tetraoxo-7,8,9,10,11,12,13,14,17,18,19,19a,20,21,22,23-hexadecahydro-16H-pyrido[2′,11:6,7][1]oxa[4,7,10,14]tetraazacycloheptadecino[17,16-c]quinoline-9-carboxamide]
  EC50: 184 nM
  Emax: 273%

## CC(C)C[C@H]1C(=O)N(C)CC(=O)N[C@H](Cc2ccccc2)COc2cc3c(cc2C(=O)N[C@H](C(=O)NCCc2ccc4c(c2)OCCCO4)CC(=O)N1C)OCO3 [Example 101, (7R,13S,17S)-7-benzyl-N-(2-(3,4-dihydro-2H-benzo[b][1,4]dioxepin-7-yl)ethyl)-13-isobutyl-11,14-dimethyl-9,12,15,19-tetraoxo-6,7,8,9,10,11,12,13,14,15,16,17,18,19-tetradecahydro-[1,3]dioxolo[4′,5′:4,5]benzo[1,2-p][1]oxa[4,7,10,14]tetraazacycloheptadecine-17-carboxamide]
  EC50: 201 nM
  Emax: 163%

## Cc1ccc(F)c(CCNC(=O)[C@@H]2CC(=O)N(C)[C@@H](CC(C)C)C(=O)N3CCCC[C@@H]3C(=O)N[C@H](Cc3ccccc3)COc3cnc4ccccc4c3C(=O)N2)c1F [Example 102, (9S,13S,19aR,22R)-22-benzyl-N-(2,6-difluoro-3-methylphenethyl)-13-isobutyl-12-methyl-7,11,14,20-tetraoxo-7,8,9,10,11,12,13,14,17,18,19,19a,20,21,22,23-hexadecahydro-16H-pyrido[2′,11:6,7][1]oxa[4,7,10,14]tetraazacycloheptadecino[17,16-c]quinoline-9-carboxamide]
  EC50: 225 nM
  Emax: 332%

## CC(C)C[C@H]1C(=O)N2CCCC[C@@H]2C(=O)N[C@H](Cc2ccccc2)COc2cnc3ccccc3c2C(=O)N[C@H](C(=O)NCCc2ccns2)CC(=O)N1C [Example 103, (9S,13S,19aR,22R)-22-benzyl-13-isobutyl-N-(2-(isothiazol-5-yl)ethyl)-12-methyl-7,11,14,20-tetraoxo-7,8,9,10,11,12,13,14,17,18,19,19a,20,21,22,23-hexadecahydro-16H-pyrido[2′,1′:6,7][1]oxa[4,7,10,14]tetraazacycloheptadecino[17,16-c]quinoline-9-carboxamide]
  EC50: 499 nM
  Emax: 256%

## Cc1cccc(F)c1CCNC(=O)[C@@H]1CC(=O)N(C)[C@@H](CC(C)C)C(=O)N2CCCC[C@@H]2C(=O)N[C@H](Cc2ccccc2)COc2cnc3ccccc3c2C(=O)N1 [Example 104, (9S,13S,19aR,22R)-22-benzyl-N-(2-fluoro-6-methylphenethyl)-13-isobutyl-12-methyl-7,11,14,20-tetraoxo-7,8,9,10,11,12,13,14,17,18,19,19a,20,21,22,23-hexadecahydro-16H-pyrido[2′,11:6,7][1]oxa[4,7,10,14]tetraazacycloheptadecino[17,16-c]quinoline-9-carboxamide]
  EC50: 211 nM
  Emax: 204%

## CC(C)C[C@H]1C(=O)N2CCCC[C@@H]2C(=O)N[C@H](Cc2ccccc2)COc2cnc3ccccc3c2C(=O)N[C@H](C(=O)NCCc2cc(C3CC3)on2)CC(=O)N1C [Example 105, (9S,13S,19aR,22R)-22-benzyl-N-(2-(5-cyclopropylisoxazol-3-yl)ethyl)-13-isobutyl-12-methyl-7,11,14,20-tetraoxo-7,8,9,10,11,12,13,14,17,18,19,19a,20,21,22,23-hexadecahydro-16H-pyrido[2′,1′:6,7][1]oxa[4,7,10,14]tetraazacycloheptadecino[17,16-c]quinoline-9-carboxamide]
  EC50: 173 nM
  Emax: 351%

## CC(C)C[C@H]1C(=O)N2CCOC[C@@H]2C(=O)N[C@H](Cc2ccccc2)COc2cnc3ccccc3c2C(=O)N[C@H](C(=O)NCCc2cc(C3CC3)on2)CC(=O)N1C [Example 106, (9S,13S,19aR,22R)-22-benzyl-N-(2-(5-cyclopropylisoxazol-3-yl)ethyl)-13-isobutyl-12-methyl-7,11,14,20-tetraoxo-7,8,9,10,11,12,13,14,16,17,19,19a,20,21,22,23-hexadecahydro-[1,4]oxazino[3′,4′:6,7][1]oxa[4,7,10,14]tetraazacycloheptadecino[17,16-c]quinoline-9-carboxamide]
  EC50: 864 nM
  Emax: 308%
